Values after ≈ are worked out from the molar mass of the structure shown. Read-outs that look alike come from different tables or passages of the source.
Legend:
[1] = Dynamic Vapour Sorption (DVS) with XRPD re-analysis; format: physicochemical
Procedure: Dynamic Vapour Sorption (DVS) was performed on a DVS-1 dynamic vapour sorption balance by Surface Measurement Systems. Approximately 10-20 mg of sample was loaded into a wire mesh vapour sorption balance pan of the balance. The sample was subjected to a ramping profile from 20-90% relative humidity (RH) in 10% increments, maintaining the sample at each step until a stable weight had been achieved (99.5% step completion) or 1000 minutes had elapsed. After completion of the sorption cycle, the sample was dried using the same procedure, but all the way down to 0% RH and finally taken back to the starting point of 20% RH. The weight change during the sorption/desorption cycles were plotted, allowing for the hygroscopic nature of the sample to be determined. Following the DVS analysis, the solid was re-analysed by XRPD in order to determine whether there had been any change in physical form.

[2] = Solubility experiments (approximate solubility by solvent aliquot addition); format: physicochemical; conditions: thermodynamic from solid
Procedure: Approximately 20 mg of Form A of Compound (1) was placed in each of 48 vials and 5 volume aliquots of the appropriate solvent systems were added to the appropriate vial. Between each addition, the mixture was checked for dissolution and if no dissolution was apparent, the mixture was warmed to ca. 50° C. and checked again. This procedure was continued until dissolution was observed or until 100 volumes of solvent had been added.

water sorption at 90% RH ([1]; DVS, 90% RH): 0.13%
XRPD analysis following DVS (change in physical form) ([1]; after DVS sorption/desorption cycle): no change in form
hygroscopicity (DVS) ([1]; judged from water sorption at 90% RH): non-hygroscopic
solubility ([2]; aqueous with cosolvent or surfactant or cyclodextrin, Solvent: MeOH/Water (20%), ca. 50° C., read-out: Solubility (mg/mL) (ca. 50° C.)): < 10 mg/mL
solubility ([2]; aqueous with cosolvent or surfactant or cyclodextrin, Solvent: MeOH/Water (50%), RT (ca. 22° C.), read-out: Solubility (mg/mL) RT (ca. 22° C.)): < 10 mg/mL
solubility ([2]; aqueous with cosolvent or surfactant or cyclodextrin, Solvent: MeOH/Water (50%), ca. 50° C., read-out: Solubility (mg/mL) (ca. 50° C.)): < 10 mg/mL
solubility ([2]; ethyl acetate/cyclohexane (1:2), organic solvent or mixture, Solvent: EtOAc/Cyclohexane (1:2), RT (ca. 22° C.), read-out: Solubility (mg/mL) RT (ca. 22° C.)): < 10 mg/mL
solubility ([2]; organic solvent or mixture, Solvent: 1,2-Propanediol, RT (ca. 22° C.), read-out: Solubility (mg/mL) RT (ca. 22° C.)): < 20 mg/mL
solubility ([2]; organic solvent or mixture, Solvent: 1,2-Propanediol, ca. 50° C., read-out: Solubility (mg/mL) (ca. 50° C.)): 20 mg/mL (≈ 65.2 mM)
solubility ([2]; organic solvent or mixture, Solvent: 1,4-Dioxane, RT (ca. 22° C.), read-out: Solubility (mg/mL) RT (ca. 22° C.)): > 200 mg/mL
solubility ([2]; organic solvent or mixture, Solvent: 1,4-Dioxane, ca. 50° C., read-out: Solubility (mg/mL) (ca. 50° C.)): > 200 mg/mL
solubility ([2]; organic solvent or mixture, Solvent: 1-Butanol (1-BuOH), RT (ca. 22° C.), read-out: Solubility (mg/mL) RT (ca. 22° C.)): < 20 mg/mL
solubility ([2]; organic solvent or mixture, Solvent: 1-Butanol (1-BuOH), ca. 50° C., read-out: Solubility (mg/mL) (ca. 50° C.)): 20 mg/mL (≈ 65.2 mM)
solubility ([2]; organic solvent or mixture, Solvent: 1-Propanol (1-PrOH), RT (ca. 22° C.), read-out: Solubility (mg/mL) RT (ca. 22° C.)): < 20 mg/mL
solubility ([2]; organic solvent or mixture, Solvent: 1-Propanol (1-PrOH), ca. 50° C., read-out: Solubility (mg/mL) (ca. 50° C.)): 20 mg/mL (≈ 65.2 mM)
solubility ([2]; organic solvent or mixture, Solvent: 2-Ethoxyethanol, RT (ca. 22° C.), read-out: Solubility (mg/mL) RT (ca. 22° C.)): < 200 mg/mL
solubility ([2]; organic solvent or mixture, Solvent: 2-Ethoxyethanol, ca. 50° C., read-out: Solubility (mg/mL) (ca. 50° C.)): 200 mg/mL (≈ 652 mM)
solubility ([2]; organic solvent or mixture, Solvent: 2-Methoxyethanol, RT (ca. 22° C.), read-out: Solubility (mg/mL) RT (ca. 22° C.)): > 200 mg/mL
solubility ([2]; organic solvent or mixture, Solvent: 2-Methoxyethanol, ca. 50° C., read-out: Solubility (mg/mL) (ca. 50° C.)): > 200 mg/mL
solubility ([2]; organic solvent or mixture, Solvent: 2-Methyl tetrahydrofuran (2-MeTHF), RT (ca. 22° C.), read-out: Solubility (mg/mL) RT (ca. 22° C.)): > 200 mg/mL
solubility ([2]; organic solvent or mixture, Solvent: 2-Methyl tetrahydrofuran (2-MeTHF), ca. 50° C., read-out: Solubility (mg/mL) (ca. 50° C.)): > 200 mg/mL
solubility ([2]; organic solvent or mixture, Solvent: 2-Propanol (IPA), RT (ca. 22° C.), read-out: Solubility (mg/mL) RT (ca. 22° C.)): < 13 mg/mL
solubility ([2]; organic solvent or mixture, Solvent: 2-Propanol (IPA), ca. 50° C., read-out: Solubility (mg/mL) (ca. 50° C.)): 13 mg/mL (≈ 42.4 mM)
solubility ([2]; organic solvent or mixture, Solvent: 3-Methyl-1-butanol, RT (ca. 22° C.), read-out: Solubility (mg/mL) RT (ca. 22° C.)): < 10 mg/mL
solubility ([2]; organic solvent or mixture, Solvent: 3-Methyl-1-butanol, ca. 50° C., read-out: Solubility (mg/mL) (ca. 50° C.)): < 10 mg/mL
solubility ([2]; organic solvent or mixture, Solvent: Acetone/Water (3%), RT (ca. 22° C.), read-out: Solubility (mg/mL) RT (ca. 22° C.)): < 200 mg/mL
solubility ([2]; organic solvent or mixture, Solvent: Acetone/Water (3%), ca. 50° C., read-out: Solubility (mg/mL) (ca. 50° C.)): 200 mg/mL (≈ 652 mM)
solubility ([2]; organic solvent or mixture, Solvent: Acetone/Water (20%), RT (ca. 22° C.), read-out: Solubility (mg/mL) RT (ca. 22° C.)): < 200 mg/mL
solubility ([2]; organic solvent or mixture, Solvent: Acetone/Water (20%), ca. 50° C., read-out: Solubility (mg/mL) (ca. 50° C.)): 200 mg/mL (≈ 652 mM)
solubility ([2]; organic solvent or mixture, Solvent: Acetone, RT (ca. 22° C.), read-out: Solubility (mg/mL) RT (ca. 22° C.)): 100 mg/mL (≈ 326 mM)
solubility ([2]; organic solvent or mixture, Solvent: Acetone, ca. 50° C., read-out: Solubility (mg/mL) (ca. 50° C.)): > 100 mg/mL
solubility ([2]; organic solvent or mixture, Solvent: Acetonitrile, RT (ca. 22° C.), read-out: Solubility (mg/mL) RT (ca. 22° C.)): < 13 mg/mL
solubility ([2]; organic solvent or mixture, Solvent: Acetonitrile, ca. 50° C., read-out: Solubility (mg/mL) (ca. 50° C.)): 13 mg/mL (≈ 42.4 mM)
solubility ([2]; organic solvent or mixture, Solvent: Anisole, RT (ca. 22° C.), read-out: Solubility (mg/mL) RT (ca. 22° C.)): < 40 mg/mL
solubility ([2]; organic solvent or mixture, Solvent: Anisole, ca. 50° C., read-out: Solubility (mg/mL) (ca. 50° C.)): 40 mg/mL (≈ 130 mM)
solubility ([2]; organic solvent or mixture, Solvent: Benzonitrile, RT (ca. 22° C.), read-out: Solubility (mg/mL) RT (ca. 22° C.)): < 10 mg/mL
solubility ([2]; organic solvent or mixture, Solvent: Benzonitrile, ca. 50° C., read-out: Solubility (mg/mL) (ca. 50° C.)): < 10 mg/mL
solubility ([2]; organic solvent or mixture, Solvent: Benzyl alcohol, RT (ca. 22° C.), read-out: Solubility (mg/mL) RT (ca. 22° C.)): < 68 mg/mL
solubility ([2]; organic solvent or mixture, Solvent: Benzyl alcohol, ca. 50° C., read-out: Solubility (mg/mL) (ca. 50° C.)): 68 mg/mL (≈ 222 mM)
solubility ([2]; organic solvent or mixture, Solvent: Chloroform, RT (ca. 22° C.), read-out: Solubility (mg/mL) RT (ca. 22° C.)): < 10 mg/mL
solubility ([2]; organic solvent or mixture, Solvent: Chloroform, ca. 50° C., read-out: Solubility (mg/mL) (ca. 50° C.)): < 10 mg/mL
solubility ([2]; organic solvent or mixture, Solvent: Cumene, RT (ca. 22° C.), read-out: Solubility (mg/mL) RT (ca. 22° C.)): < 10 mg/mL
solubility ([2]; organic solvent or mixture, Solvent: Cumene, ca. 50° C., read-out: Solubility (mg/mL) (ca. 50° C.)): < 10 mg/mL
solubility ([2]; organic solvent or mixture, Solvent: Cyclohexane, RT (ca. 22° C.), read-out: Solubility (mg/mL) RT (ca. 22° C.)): < 10 mg/mL
solubility ([2]; organic solvent or mixture, Solvent: Cyclohexane, ca. 50° C., read-out: Solubility (mg/mL) (ca. 50° C.)): < 10 mg/mL
solubility ([2]; organic solvent or mixture, Solvent: Cyclohexanone, RT (ca. 22° C.), read-out: Solubility (mg/mL) RT (ca. 22° C.)): < 200 mg/mL
solubility ([2]; organic solvent or mixture, Solvent: Cyclohexanone, ca. 50° C., read-out: Solubility (mg/mL) (ca. 50° C.)): 200 mg/mL (≈ 652 mM)
solubility ([2]; organic solvent or mixture, Solvent: Dichloromethane (DCM), RT (ca. 22° C.), read-out: Solubility (mg/mL) RT (ca. 22° C.)): < 10 mg/mL
solubility ([2]; organic solvent or mixture, Solvent: Dichloromethane (DCM), ca. 50° C., read-out: Solubility (mg/mL) (ca. 50° C.)): < 10 mg/mL
SMILES: O=C(O)CNC(=O)c1ncc(-c2cccc(Cl)c2)cc1O [Form A of Compound (I), {[5-(3-chlorophenyl)-3-hydroxypyridine-2-carbonyl]amino}acetic acid]

— patent US12419877B2, “Solid forms of {[5-(3-chlorophenyl)-3-hydroxypyridine-2-carbonyl]amino}acetic acid, compositions, and uses thereof” (Akebia Therapeutics, Inc., priority 2013, dated 2025)
